Series [1] is described as follows: Half life in Sprague-Dawley rat at 1 mg/kg,iv administration measured upto 24 hrs by LC-MS/MS analysis. The series is classed as ADME, organism-based. To be noted: in vivo.
Series [2] can be described thus: MRTinfinity in Sprague-Dawley rat at 1 mg/kg,iv administration measured upto 24 hrs by LC-MS/MS analysis. The format is ADME, organism-based. To be noted: in vivo.
The nature of series [3]: Clearance in Sprague-Dawley rat at 1 mg/kg,iv administration measured upto 24 hrs by LC-MS/MS analysis. Conditions: in vivo. The series is classed as ADME, organism-based.
A short description of series [4]: AUC (0-t) in Sprague-Dawley rat at 1 mg/kg,iv administration measured upto 24 hrs by LC-MS/MS analysis. The format is ADME, organism-based. To be noted: in vivo.
A short description of series [5]: AUC (0-infinity) in Sprague-Dawley rat at 1 mg/kg,iv administration measured upto 24 hrs by LC-MS/MS analysis. The series is classed as ADME, organism-based. To be noted: in vivo.
Series [6] is described as follows: MRTinfinity in Sprague-Dawley rat at 10 mg/kg,po administration measured upto 24 hrs by LC-MS/MS analysis. Conditions: in vivo. The series is classed as ADME, organism-based.
Series [7] in a line: AUC (0-t) in Sprague-Dawley rat at 10 mg/kg,po administration measured upto 24 hrs by LC-MS/MS analysis. The series is classed as ADME, organism-based. To be noted: in vivo.
Series [8] has as its system MV4-11. Nature of the series: Induction of apoptosis in human MV4-11 cells assessed as viable cells at 0.625 uM incubated for 24 hrs by annexin V-FITC/PI staining based flow cytometric analysis (reference value: 97%). The series is classed as functional. Conditions: Homo sapiens, MV4-11, read-out: Activity. In general terms: Flow cytometry measures light scatter and fluorescence of single cells or particles in a stream.

The subject of series [9] is MV4-11. The series can be described thus: Induction of apoptosis in human MV4-11 cells assessed as viable cells at 2.5 uM incubated for 24 hrs by annexin V-FITC/PI staining based flow cytometric analysis (reference value: 97%). The series is classed as functional. Conditions: Homo sapiens, MV4-11, read-out: Activity.
For series [10], the system named is MV4-11. The series can be described thus: Induction of apoptosis in human MV4-11 cells assessed as viable cells at 10 uM incubated for 24 hrs by annexin V-FITC/PI staining based flow cytometric analysis (reference value: 97%). To be noted: Homo sapiens, MV4-11, read-out: Activity. The series is classed as functional.
Series [11] has as its system MV4-11. The series can be described thus: Induction of apoptosis in human MV4-11 cells assessed as early apoptotic cells at 2.5 uM incubated for 24 hrs by annexin V-FITC/PI staining based flow cytometric analysis (reference value: 0%). The format is functional.
In series [12] the test system is MV4-11. Nature of the series: Induction of apoptosis in human MV4-11 cells assessed as late apoptotic cells at 1.25 uM incubated for 24 hrs by annexin V-FITC/PI staining based flow cytometric analysis (reference value: 0.04 %). The series is classed as functional.
The test system of series [13] is MV4-11. Nature of the series: Induction of apoptosis in human MV4-11 cells assessed as late apoptotic cells at 2.5 uM incubated for 24 hrs by annexin V-FITC/PI staining based flow cytometric analysis (reference value: 0.04 %). The format is functional.
Series [14] has as its system MV4-11. The series can be described thus: Induction of apoptosis in human MV4-11 cells assessed as late apoptotic cells at 10 uM incubated for 24 hrs by annexin V-FITC/PI staining based flow cytometric analysis (reference value: 0.04 %). The series is classed as functional.
In series [15] the test system is MV4-11. The series can be described thus: Induction of apoptosis in human MV4-11 cells assessed as necrotic cells at 1.25 uM incubated for 24 hrs by annexin V-FITC/PI staining based flow cytometric analysis (reference value: 2.35 %). The series is classed as functional.
In series [16] the test system is MV4-11. The series can be described thus: Induction of apoptosis in human MV4-11 cells assessed as necrotic cells at 10 uM incubated for 24 hrs by annexin V-FITC/PI staining based flow cytometric analysis (reference value: 2.35 %). The format is functional.
In series [17] the test system is MV4-11. Nature of the series: Induction of cell cycle arrest in human MV4-11 cells assessed as accumulation of cells at G0/G1 phase at 0.625 uM incubated for 24 hrs by propidium iodide staining flow cytometric analysis (reference value: 37.64 %). The series is classed as functional.
The subject of series [18] is MV4-11. The series can be described thus: Induction of cell cycle arrest in human MV4-11 cells assessed as accumulation of cells at G2/M phase at 0.3125 uM incubated for 24 hrs by propidium iodide staining flow cytometric analysis (reference value: 18 %). The series is classed as functional.
In series [19] the test system is MV4-11. The series can be described thus: Induction of cell cycle arrest in human MV4-11 cells assessed as accumulation of cells at G2/M phase at 0.625 uM incubated for 24 hrs by propidium iodide staining flow cytometric analysis (reference value: 18 %). The series is classed as functional.
Series [20] deals with MV4-11. Nature of the series: Induction of cell cycle arrest in human MV4-11 cells assessed as accumulation of cells at G2/M phase at 1.25 uM incubated for 24 hrs by propidium iodide staining flow cytometric analysis (reference value: 18 %). The format is functional.
Series [21] deals with MV4-11. Nature of the series: Induction of cell cycle arrest in human MV4-11 cells assessed as accumulation of cells at G2/M phase at 2.5 uM incubated for 24 hrs by propidium iodide staining flow cytometric analysis (reference value: 18 %). The format is functional.
For series [22], the system named is MV4-11. The series can be described thus: Induction of cell cycle arrest in human MV4-11 cells assessed as accumulation of cells at G2/M phase at 5 uM incubated for 24 hrs by propidium iodide staining flow cytometric analysis (reference value: 18 %). The series is classed as functional.
The subject of series [23] is MV4-11. The series can be described thus: Induction of cell cycle arrest in human MV4-11 cells assessed as accumulation of cells at S phase at 0.3125 uM incubated for 24 hrs by propidium iodide staining flow cytometric analysis (reference value: 43.94 %). The series is classed as functional.
Series [24] deals with MV4-11. Nature of the series: Induction of cell cycle arrest in human MV4-11 cells assessed as accumulation of cells at S phase at 0.625 uM incubated for 24 hrs by propidium iodide staining flow cytometric analysis (reference value: 43.94 %). The series is classed as functional.
For series [25], the system named is MV4-11. The series can be described thus: Induction of cell cycle arrest in human MV4-11 cells assessed as accumulation of cells at S phase at 1.25 uM incubated for 24 hrs by propidium iodide staining flow cytometric analysis (reference value: 43.94 %). The format is functional.
The subject of series [26] is MV4-11. The series can be described thus: Induction of cell cycle arrest in human MV4-11 cells assessed as accumulation of cells at S phase at 2.5 uM incubated for 24 hrs by propidium iodide staining flow cytometric analysis (reference value: 43.94 %). The format is functional.
For series [27], the system named is MV4-11. Nature of the series: Induction of cell cycle arrest in human MV4-11 cells assessed as accumulation of cells at S phase at 5 uM incubated for 24 hrs by propidium iodide staining flow cytometric analysis (reference value: 43.94 %). The format is functional.
In series [28] the test system is MV4-11. Nature of the series: Induction of apoptosis in human MV4-11 cells assessed as downregulation of c-Myc expression incubated for 48 hrs by Western blotting analysis. The series is classed as functional, cell-based.
For series [29], the system named is MV4-11. Nature of the series: Induction of apoptosis in human MV4-11 cells assessed as upregulation of PARP expression at 0.3125 to 2.5 uM incubated for 48 hrs by Western blotting analysis. To be noted: dose 0.3125-2.5 µM. The series is classed as functional, cell-based. A general note: In western blotting, separated proteins are transferred to a membrane and probed.

The subject of series [30] is MV4-11. Nature of the series: Induction of apoptosis in human MV4-11 cells assessed as downregulation of c-Myc expression at 500 nM hrs by Western blotting analysis. Conditions: TDE = time-dependent effect. The series is classed as functional, cell-based.
For series [31], the system named is MV4-11. The series can be described thus: Induction of apoptosis in human MV4-11 cells assessed as downregulation of CDK6 expression at 500 nM hrs by Western blotting analysis. The format is functional, cell-based. Conditions: TDE = time-dependent effect.
In series [32] the test system is MV4-11. The series can be described thus: Induction of apoptosis in human MV4-11 cells assessed as upregulation of PARP expression at 500 nM hrs by Western blotting analysis. The series is classed as functional, cell-based. To be noted: TDE = time-dependent effect.
Series [33] relates to MV4-11. Nature of the series: Antitumor activity against human MV4-11 cells xenografted in BALB/c mouse assessed as tumor growth inhibition at 30 mg/kg administration relative to control. The series is classed as functional. Conditions: read-out: TGI.
Series [34] relates to MV4-11. Nature of the series: Antitumor activity against human MV4-11 cells xenografted in BALB/c mouse assessed as tumor growth inhibition at 50 mg/kg administration relative to control. The series is classed as functional. To be noted: read-out: TGI. (A xenograft is tissue or cells of one species grown in another, often human tumour cells in immunodeficient mice.)
The target in series [35] is Bromodomain-containing protein 2 (Homo sapiens) (UniProt P25440). To be noted: time 30.0 min.
Sequence of Bromodomain-containing protein 2 (Homo sapiens) (P25440 whole entry, looked up): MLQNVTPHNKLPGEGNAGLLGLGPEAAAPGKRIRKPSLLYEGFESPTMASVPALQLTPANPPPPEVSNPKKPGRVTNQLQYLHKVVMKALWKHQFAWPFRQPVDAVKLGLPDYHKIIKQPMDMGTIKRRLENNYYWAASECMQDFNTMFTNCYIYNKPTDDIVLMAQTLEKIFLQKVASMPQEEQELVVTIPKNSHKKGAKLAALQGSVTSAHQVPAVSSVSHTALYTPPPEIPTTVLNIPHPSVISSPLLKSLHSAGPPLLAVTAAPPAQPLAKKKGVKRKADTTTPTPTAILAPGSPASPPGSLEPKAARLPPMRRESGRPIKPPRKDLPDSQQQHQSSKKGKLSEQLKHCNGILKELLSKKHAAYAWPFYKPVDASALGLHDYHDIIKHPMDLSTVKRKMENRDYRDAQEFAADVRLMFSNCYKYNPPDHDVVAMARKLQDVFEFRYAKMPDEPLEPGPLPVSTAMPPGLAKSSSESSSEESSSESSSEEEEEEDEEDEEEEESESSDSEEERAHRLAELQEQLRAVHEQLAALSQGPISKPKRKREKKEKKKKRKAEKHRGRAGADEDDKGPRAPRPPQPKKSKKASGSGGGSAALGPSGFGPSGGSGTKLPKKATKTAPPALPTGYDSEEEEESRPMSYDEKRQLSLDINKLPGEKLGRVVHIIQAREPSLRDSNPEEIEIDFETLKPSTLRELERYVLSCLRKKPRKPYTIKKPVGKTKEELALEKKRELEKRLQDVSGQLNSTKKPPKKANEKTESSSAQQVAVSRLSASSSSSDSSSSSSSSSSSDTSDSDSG

The structures appear in SMILES notation. Calls of active or inactive are those of the source. The calls are words filed in the database; no cut-off is given here.

Consider `COc1cc2c(cc1-c1c(C)noc1C)ncc1nc(C)n([C@H](C)c3ccccc3)c12`, for which the half-life (in general, the time in which the quantity being followed falls by half) in [1] was 42 min. The MRT inf (as a rule, the average time that molecules of a dose stay in the body) came to 50.4 min in series [2] and 352 min in [6]. For the same molecule, the clearance (usually a measure of how efficiently the substance is removed, as volume per time) in [3] came out at 12.1 mL/min/kg. Besides, the AUC(0-t) (in general, exposure summed from dosing to a finite time, without extrapolation to infinity) at 24 h in series [4] is 1380 ng·h/mL; in [7], 16000 ng·h/mL. In addition, the AUC(0-inf) – broadly, total exposure, with the tail of the curve extrapolated – in series [5] came to 1400 ng·h/mL. Moreover, the viability at 0.625 µM in the series with MV4-11 [8] is 68.2%. The viability at 2.5 µM with MV4-11 [9] came to 81.7%. Further, the viability at 10 µM with MV4-11 [10] amounted to 73.5%. The Activity in the series with MV4-11 [11] came to 8.72%; with MV4-11 [12], 6.32%; in the series on MV4-11 [13] it was 9.68%; in the series on MV4-11 [14] it was 11.62%; in the series with MV4-11 [15], 8%; in the series on MV4-11 [16] it was 8%. For the same molecule, the Activity in the series on MV4-11 [17] is reported as 61.2%; in the series with MV4-11 [18], 6.33%; with MV4-11 [19], 16.18%; in the series with MV4-11 [20], 5.16%; in the series with MV4-11 [21] it was 7.33%; in the series with MV4-11 [22], 3.63%. Also, the Activity was 44.55% in the series on MV4-11 [23]; 44.55% in the series with MV4-11 [24]; 23.31% with MV4-11 [25]; 20.35% in the series with MV4-11 [26]; 17.41% in the series with MV4-11 [27]; “Dose-Dependent Effect” with MV4-11 [28]. Besides, the Activity entry in the series on MV4-11 [30], in the series on MV4-11 [31] and in the series on MV4-11 [32] was “Tde” each time. Also, the outcome in the series with MV4-11 [29] was Active. The inhibition in vivo at 30 mg/kg in the series with MV4-11 [33] was found to be 55.1%. Moreover, in the series on MV4-11 [34], the inhibition in vivo at 50 mg/kg is 70.4%.
Regarding `COc1cc2c(cc1-c1c(C)n[nH]c1C)ncc1nc(C)n([C@H](C)c3ccccc3)c12`, the ΔTm (in general, the shift of the melting midpoint relative to a reference) in [35] came out at 5 °C.

Values taken from ChEMBL document CHEMBL5532655, “Discovery of (R)-4-(8-methoxy-2-methyl-1-(1-phenylethy)-1H-imidazo[4,5-c]quinnolin-7-yl)-3,5-dimethylisoxazole as a potent and selective BET inhibitor for treatment of acute myeloid leukemia (AML) guided by FEP calculation” (Eur J Med Chem, 2024).
